From patent US20130047297A1, “POLYNUCLEOTIDE MOLECULES FOR GENE REGULATION IN PLANTS” (priority 2010, published 2013)
{AF488} = Alexa Fluor 488 fluorescent label (Invitrogen)

Key:
endogenous EPSPS = assay: EPSPS mRNA, EPSPS protein and shikimate in detached leaves after anti-sense ssDNA petiole uptake (Example 9); set-up: species or system Amaranthus palmeri; settings: for increasing glyphosate efficacy, shikimate accumulation: 50 microgram/mL glyphosate; for suppressing levels of EPSPS mRNA and protein: 48 h incubation, #1 5 microM, #6 5 microM each (20 microM total), compared with other treatments
Procedure: Petioles of detached leaves of glyphosate-resistant Palmer amaranth were placed in 200 mM sucrose solution with oligonucleotides according to the treatments listed in Table 2. Control leaves were permeated with the anti-sense control (SEQ ID NO:14), and additionally treated with or without 50 micrograms/mL glyphosate. EPSPS mRNA, EPSPS protein, and shikimate levels were measured after 48 h incubation. To assess the effects of anti-sense ssDNA oligonucleotides on EPSPS mRNA, total leaf RNA was isolated and quantitative real-time RT-PCR was performed to compare EPSPS mRNA levels. To assess the effects of anti-sense ssDNA oligonucleotides on EPSPS protein, total leaf soluble protein was isolated, separated by SDS-PAGE, and EPSPS protein levels measured by Western blot using antibodies against maize EPSPS_TIPA. Effects of anti-sense ssDNA oligonucleotides on shikimate accumulation as an indication of suppression of EPSPS were assessed in two experiments: in experiment 1, the oligonucleotide-treated leaves were incubated with 50 microgram/mL glyphosate for an additional 48 h either by petiole uptake (control leaves were permeated with the anti-sense control (SEQ ID NO:14), and additionally treated with or without 50 micrograms/mL glyphosate); in experiment 2, leaf disc assays were performed on the oligonucleotide-treated leaves, and shikimate levels measured by HPLC (controls in this case were leaves that had not been treated with oligonucleotides but incubated with 50 microgram/mL glyphosate).

[1] = system: Nicotiana benthamiana phytoene desaturase; assay: Single PDS ssDNA oligonucleotide treatment, systemic silencing in organs and seed set (Example 12); type: in vivo
Procedure: Four-week old tobacco (Nicotiana benthamiana) plants were used in all treatments. Two fully expanded leaves (one cotyledon, one true leaf) were conditioned by dipping into freshly made surfactant solution (0.1% Silwet L-77 in double-distilled water) for a few seconds and allowed to dry for 15-30 minutes. Twenty microliters of a single-stranded DNA (ssDNA) 22-mer oligonucleotide with the sequence […] (SEQ ID NO:39), corresponding to the nucleotides at positions 1099-1120 of Nicotiana benthamiana phytoene desaturase (SEQ ID NO:2) was applied as a 25 micromolar solution in 0.01% Silwet L-77 in 5 millimolar sodium phosphate buffer, pH 6.8 to the top surface of each conditioned leaf for a total of 40 microliters (1 nanomole oligonucleotide) per plant. Control plants were treated with the Silwet solution without the DNA oligonucleotide.
Flowers of both control and ssDNA-treated plants were allowed to set seed. Seeds were collected from mature fruits, weighed, and allowed to germinate. Seed weights were identical (about 11 mg per 100 seeds) and seed morphology appeared similar between the ssDNA-treated and the control plants.
In a separate assay using a similar procedure, tobacco plants were conditioned by dipping in 0.1% Silwet L-77 in double-distilled water, allowed to dry for 15-30 minutes, and treated with the PDS ssDNA 22-mer (SEQ ID NO:39) applied as a 25 micromolar solution in 0.01% Silwet L-77 in 5 millimolar sodium phosphate buffer, pH 6.8 to the top surface of each conditioned leaf for a total of 40 microliters (1 nanomole oligonucleotide) per plant. Other plants were not conditioned with a surfactant treatment, but were treated only with 1 nanomole of the PDS ssDNA 22-mer (SEQ ID NO:39) applied either by infiltration with a needleless syringe (shown in FIG. 18B) or by hand application of drops to the leaf surface (not shown in FIG. 18B), and either as a 25 micromolar solution in 0.01% Silwet L-77 in 5 millimolar sodium phosphate buffer, pH 6.8 or as a 25 micromolar solution in 5 millimolar sodium phosphate buffer, pH 6.8 (without surfactant). Negative control plants were treated with the Silwet buffer solution without the DNA oligonucleotide. Results are depicted in FIG. 18B.

[2] = system: detached leaves of glyphosate-resistant Palmer amaranth; assay: Petiole uptake of fluorescently labelled ssDNA oligonucleotide in detached leaves (Example 9); set-up: species or system Amaranthus palmeri
Procedure: Petioles of detached leaves of glyphosate-resistant Palmer amaranth were placed in 200 mM sucrose solution with fluorescently labelled ssDNA oligonucleotides (SEQ ID NO:15). Leaf images were taken by Bio-Rad PharosFX imager equipped with a 488 nm laser from 4 h up to 48 h after uptake through petiole. Leaves incubated with 200 mM sucrose alone served as control.

[3] = system: mRNA encoding phytoene desaturase in tobacco (Nicotiana benthamiana); assay: Topical PDS dsRNA on tobacco, bleaching (Example 4); type: in vivo
Excerpt: This example illustrates the utility of the polynucleotide molecules of the invention as herbicidal agents. Two dsRNA polynucleotide molecules were designed to target overlapping segments of mRNA encoding phytoene desaturase in tobacco (Nicotiana benthamiana). With reference to SEQ ID NO:2 and FIG. 5, a dsRNA targeting a 192 nt length (shown in bold in FIG. 5) and a 685 nt length (shown in underline in FIG. 5) of the mRNA were made using an Ambion® MEGAscript® kit. Separate dsRNA solutions were prepared. Tobacco plant leaves were pretreated with surfactant solution prepared as in Example 1 and then treated with either one of the dsRNA solutions applying about […] of dsRNA per plant.

[4] = system: Palmer amaranth phytoene desaturase (PDS); assay: Sequence specificity of PDS dsRNA on Palmer amaranth, bleaching (Example 11); type: in vivo; settings: 0.6 micromolar polynucleotide, 40 microliters per plant; observed 3 days post treatment
Procedure: Palmer amaranth plants having 16 copies of EPSPS and 5-8 inches high were treated with 0.1% Silwet L-77 solution freshly made with ddH2O. Four fully expanded leaves per plant were dipped into the Silwet L-77 solution for a few seconds, and allowed to dry for 30 minutes to 1 hour before application of the polynucleotide composition. Individual polynucleotide solutions were made for each of the 678 by Palmer PDS dsRNA, 198 by Palmer PDS dsRNA, the 685 by Nicotiana benthamiana PDS dsRNA, and the 192 by Nicotiana benthamiana PDS dsRNA (0.6 micromolar polynucleotide in 0.01% Silwet L-77, 5 mM sodium phosphate buffer, pH 6.8). 10 microliters of polynucleotide solution (or buffer as a control) was applied to the top surface of each of the four pre-treated leaves per plant to provide a total of 40 microliters for each plant. Plants were kept in a growth chamber, and leaf bleaching was observed 3 days post treatment.

[5] = system: endogenous PDS, EPSPS, or RuBisCO genes from Nicotiana benthamiana; assay: PDS, EPSPS, RuBisCO anti-sense polynucleotides on Nicotiana benthamiana, plant height (Example 33); type: in vivo; settings: PDS 25 nanomoles, EPSPS and RuBisCO 50 nanomoles of each per plant
Procedure: Nicotiana benthamiana plants were treated using a procedure similar to that described in Example 12. Polynucleotide solution (or mixed polynucleotides in the case of EPSPS and RuBisCO) were prepared in 0.01% (v/v) Silwet L-77 and 2% (w/v) ammonium sulfate in 5 millimolar sodium phosphate, pH 6.8. Two fully expanded leaves per plant were dipped into 0.1% Silwet L-77 solution freshly made with ddH2O for a few seconds, and allowed to dry. About 30 minutes later, 20 microliters of polynucleotide solution, was applied to each of the two pre-treated leaves. For PDS, each of 5 plants received 25 nanomoles of the PDS anti-sense polynucleotide (SEQ ID NO:34); for EPSPS, each of 5 plants received 50 nanomoles of each EPSPS anti-sense polynucleotide (SEQ ID NOS:279-284); and for RuBisCO, each of 5 plants received 50 nanomoles of each RuBisCO anti-sense polynucleotide (SEQ ID NOS:288-295). Paired control plants were treated with buffer (0.01% (v/v) Silwet L-77 and 2% (w/v) ammonium sulfate in 5 millimolar sodium phosphate, pH 6.8).

Q: How did the “increasing glyphosate efficacy, shikimate accumulation” value (endogenous EPSPS) turn out when “Anti-sense_PO1: SEQ ID NO:8, ssDNA anti-sense to Amaranthus palmeri EPSPS (antisense ACCCTCCACGACTGCCCTTT; listed as DNA, chemistry not fully specified; listed as Amaranthus palmeri)” was run?
A: The value was “increased accumulation of shikimate”.

Q: What about the “suppressing levels of EPSPS mRNA and protein” value (endogenous EPSPS) of the same molecule?
A: The value was “more efficacious”.

Q: Which “amount of seed produced per fruit” value ([1]; compared to control plants) does the source give for “PDS ssDNA 22-mer: SEQ ID NO:39, GGCAGTACAATTAAAGGAGATG, positions 1099-1120 of SEQ ID NO:2 (DNA, backbone not given here; listed as Nicotiana benthamiana)” here?
A: Its value is “reduced amount of seed produced per fruit”.

Q: What about the “bleaching of apical leaves, stems, and flowers” value ([1]; leaves conditioned with 0.1% Silwet L-77, 1 nanomole per plant) of the same molecule?
A: The value was “all displayed bleaching”.

Q: What about the germination rate ([1]; seeds from treated plants, control 95 out of 100) of the same molecule?
A: The germination rate was 4 out of 100.

Q: What about the seed weight ([1]; seeds from treated plants, identical to control) of the same molecule?
A: The seed weight was “about 11 mg per 100 seeds”.

Q: And the “bleaching of apical leaves, stems, and flowers” value ([1]; without conditioning by Silwet L-77, 1 nanomole by infiltration or hand application of drops)?
A: The value was “displayed bleaching of apical leaves, stems, and flowers”.

Q: Which distribution in leaf ([2]; at 24 h and 48 h) does the source give for “Anti-sense_PO1_488: SEQ ID NO:15, 5′-labelled with Alexa Fluor 488 (antisense ACCCTCCACGACTGCCCTTT; DNA, 5' {AF488}, backbone not given here; listed as Amaranthus palmeri)” here?
A: The distribution in leaf was “accumulate at the leaf edge”.

Q: And the “vascular uptake into leaf” value ([2]; petiole in 200 mM sucrose, imaged 4 h up to 48 h)?
A: The value was “slightly time-dependent vascular uptake”.

Q: And the “release from vascular tissue into cells, as early as (time after treatment)” value ([2]; petiole uptake)?
A: The value was 8 h.

B1: dsRNA targeting a 685 nt length: dsRNA to Nicotiana benthamiana PDS, positions 421-1105 of SEQ ID NO:38 (nucleic acid, listed as Nicotiana benthamiana)
DNA: GCAAGAGATGTCCTAGGTGGGAAGGTAGCTGCATGGAAAGATGATGATGGAGATTGGTACGAGACTGGGTTGCACATATTCTTTGGGGCTTACCCAAATATGCAGAACCTGTTTGGAGAACTAGGGATTGATGATCGGTTGCAGTGGAAGGAACATTCAATGATATTTGCGATGCCTAACAAGCCAGGGGAGTTCAGCCGCTTTGATTTTCCTGAAGCTCTTCCTGCGCCATTAAATGGAATTTTGGCCATACTAAAGAACAACGAAATGCTTACGTGGCCCGAGAAAGTCAAATTTGCTATTGGACTCTTGCCAGCAATGCTTGGAGGGCAATCTTATGTTGAAGCTCAAGACGGTTTAAGTGTTAAGGACTGGATGAGAAAGCAAGGTGTGCCTGATAGGGTGACAGATGAGGTGTTCATTGCCATGTCAAAGGCACTTAACTTCATAAACCCTGACGAGCTTTCGATGCAGTGCATTTTGATTGCTTTGAACAGATTTCTTCAGGAGAAACATGGTTCAAAAATGGCCTTTTTAGATGGTAACCCTCCTGAGAGACTTTGCATGCCGATTGTGGAACATATTGAGTCAAAAGGTGGCCAAGTCAGACTAAACTCACGAATAAAAAAGATCGAGCTGAATGAGGATGGAAGTGTCAAATGTTTTATACTGAATAATGGCAGTA
modifications: dsRNA of this region
Q: B1 was tested. Which plant outcome ([3]; 15 days after treatment with dsRNA) did it give?
A: The plant outcome was “one half of the treated plants appeared to be dead and the other half of the plants had most of the above ground tissues bleached”.

Q: And the “phytoene desaturase silencing, leaf bleaching” value ([3]; day 9 after dsRNA treatment, about 0.6 micromoles of dsRNA per plant)?
A: The value was “visible leaf bleaching on apical leaves”.

Q: And the “Northern blot analysis, siRNAs corresponding to the dsRNAs” value ([3]; in vivo)?
A: The value was “presence of siRNAs”.

Q: And the bleaching of leaves [4]?
A: Its bleaching of leaves is “did not show bleaching of leaves”.

B2: #6: Anti-sense_PO1, PO2, PO3, PO4 (SEQ ID NOs: 8, 9, 10, 11) (nucleic acid, listed as Amaranthus palmeri)
antisense 1: ACCCTCCACGACTGCCCTTT
antisense 2: GTTTCCTTCACTCTCCAGC
antisense 3: GTAGCTTGAGCCATTATTGT
antisense 4: GTTGATGGTAGTAGCTTGAG
modifications: DNA, backbone not given here
Q: With B2 as the molecule, how does the “increasing glyphosate efficacy, shikimate accumulation” value (endogenous EPSPS) read?
A: The value was “increased accumulation of shikimate”.

Q: What about the “suppressing levels of EPSPS mRNA and protein” value (endogenous EPSPS) of the same molecule?
A: The value was “more efficacious”.

B3: EPSPS anti-sense polynucleotides: SEQ ID NOS:279-284, anti-sense to Nicotiana benthamiana EPSPS (nucleic acid)
antisense 1: CTGTGATCATCATATGTATCA
antisense 2: CCTTAACTCTCCAGCTAGCAA
antisense 3: CAGCCCGCAAATGTTTCATTC
antisense 4: GCCGTCAATGGCCGCATTGCT
antisense 5: TCCTTCCCTCAGAAAGGGCAG
antisense 6: TTGCCTCATGCTGCTAATCTG
modifications: listed as DNA, chemistry not given here
Q: With B3 as the molecule, how does the “plant height (FIG. 36)” value ([5]; 12 days (PDS and EPSPS) or 10 days (RuBisCO) after treatment) read?
A: Its value is “severe stunting”.

Q: And the other phenotype [5]?
A: Its other phenotype is “severe damage to the meristem and stem tissues”.
